The subject of experiment [1] is reversibly immortalized mouse beta (R7T1) cells. Put plainly: R7T1 proliferation assay (CellTiter Glo). Particulars: growth-arrested R7T1 cells. It counts as cell-based. The procedure: Reversibly immortalized mouse β-cells (R7T1)[49] express SV40 T antigen under a tetracycline inducible promoter. R7T1 cells were expanded in the presence of doxycycline. For experiments on proliferation, R7T1 cells were growth arrested by removal of doxycycline for 2 days and plated into 384-well plates at a density of 3,000 cells per well in growth medium. β-Cell proliferation was assessed using CellTiter Glo (Promega) after 4 days. Fold increase in cell number was calculated by normalizing compound-treated wells to the median of DMSO-treated wells.
Background: In ATP-based viability assays light output follows the ATP content of the culture.

The test system of experiment [2] is human islets. Put plainly: Human islets treated 7 days: DNA, ATP, IEQ, insulin content, GSIS. It counts as cell-based. To be noted: for DNA and ATP content and islet equivalent units (IEQ) compared with vehicle / insulin secretory capacity (GSIS): 6.7 μM GNF7156 or 2 μM GNF4877. The procedure:
Human islets were evaluated for glucose stimulated insulin secretion using standard methods. Secreted insulin was monitored using an ELISA (Meso-scale Devices) and normalized to total DNA (PicoGreen, Invitrogen).
Rat or human β-cell proliferation assays were performed using dissociated primary rat or human islets. Islets were treated with the indicated compounds in the presence of EdU for 4 days before fixing and staining. EdU incorporation was measured by click reaction with AlexaFluor-647-azide (Invitrogen). For intact islet assays, primary human islets were treated for 7 or 8 days (as indicated in the legend). Rat dissociated islets were cultured in RPMI medium containing 10% FBS and human dissociated islets were cultured in PIM-S media (Prodo laboratories) with 10% human […].

The subject of experiment [3] is Wnt-driven luciferase reporter in TM3 cells. The experiment is described as follows: Wnt-driven luciferase reporter gene (Super Top Flash). The class given is cell-based. From the text:
Supplementary Figure 8. Selective Dyrk1a inhibition is sufficient to induce β-cell proliferation.
Top Flash) in TM3 cells (mean ± SD; n=3). (b) GNF6324-treated primary rat islets were
immunostained for nuclear localization of β-catenin in EdU and insulin co-positive cells. Co-
vehicle control cells. Scale bar = 20 µm. (c-e) Selective Dyrk1a inhibitors stimulate EdU
Beta-catenin/Insulin/DAPI
% E d U (+ ) b e ta c e lls
% E d U (+ ) in s u lin (+ ) c e lls […]
% E d U ( + ) in s u lin (+ ) c e lls C o n tro l
(1 picture or pasted object on this page, not shown here)

Experiment [4] deals with NFATc1-GFP localization in Ins1 cells. The experiment is described as follows: NFATc1-GFP nuclear localization. The class given is cell-based. To be noted: low glucose. From the text:
Figure 6 AP compounds induce β-cell proliferation through activation of the calcineurin–NFAT pathway. (a) AP compounds stimulate NFATc1-GFP nuclear localization. […] Scale bar, 50 μm. […] Scale bar, 50 μm.

The target of experiment [5] is T1, AKT3 (Homo sapiens, UniProt Q9Y243).
T1 construct: purchased Ambit KINOMEscan
The experiment is described as follows: Kinase profiling. Particulars: Conc 1000 nM; read-out: Percent inhibition, AKT3. It counts as biochemical. From the text: (§1) ; Fig. 5a; Supplementary Table 1). We focused on Dyrk1a because other kinases inhibited by aminopyrazine compounds were not highly expressed in β-cells and because Dyrk1a was known to inhibit the NFAT pathway that was previously implicated in β-cell proliferation. We used molecular modelling to dock the aminopyrazine compounds into the published structure of Dyrk1a (protein databank accession code 2vx3.pdb; Fig. 5b).

Experiment [6] addresses T2, AURORA-B (Homo sapiens, UniProt Q96GD4).
T2 construct: purchased Ambit KINOMEscan
Put plainly: Kinase profiling. The class given is biochemical. To be noted: Conc 1000 nM; read-out: Percent inhibition, AURORA-B.
Text: as §1

For experiment [7], the target named is T3, EphB3 (Homo sapiens, UniProt P54753).
T3 construct: purchased Ambit KINOMEscan
Put plainly: Kinase profiling. The class given is biochemical. Particulars: Conc 1000 nM; read-out: Percent inhibition, EphB3.
Text: as §1

In experiment [8] the target is T4, JAK2 (Homo sapiens, UniProt O60674).
T4 construct: purchased Ambit KINOMEscan
The experiment is described as follows: Kinase profiling. The class given is biochemical. To be noted: read-out: Percent inhibition, JAK2; for inhibition at 1 µM: Conc 1000 nM.
Text: as §1

The target in experiment [9] is T5, LynA (Homo sapiens, UniProt P07948).
T5 construct: purchased Ambit (KINOMEscan)
The experiment is described as follows: Kinase profiling. The class given is biochemical. Particulars: Conc 1000 nM; read-out: Percent inhibition, LynA.
Text: as §1

For experiment [10], the target named is T6, MEK1 (Homo sapiens, UniProt Q02750).
T6 construct: purchased Ambit (KINOMEscan)
Put plainly: Kinase profiling. It counts as biochemical. Particulars: Conc 1000 nM; read-out: Percent inhibition, MEK1.
Text: as §1

For experiment [11], the target named is T7, PDK1 (Homo sapiens, UniProt O15530).
T7 construct: purchased Ambit (KINOMEscan)
The experiment is described as follows: Kinase profiling. To be noted: Conc 1000 nM; read-out: Percent inhibition, PDK1. The class given is biochemical.
Text: as §1

The target of experiment [12] is T8, PI3Ka (Homo sapiens, UniProt P42336).
T8 construct: purchased Ambit (KINOMEscan)
The experiment is described as follows: Kinase profiling. The class given is biochemical. Particulars: Conc 1000 nM; read-out: Percent inhibition, PI3Ka.
Text: as §1

Experiment [13] has as its target T9, PKCalpha (Homo sapiens, UniProt P17252).
T9 construct: purchased Ambit (KINOMEscan)
The experiment is described as follows: Kinase profiling. It counts as biochemical. Particulars: read-out: Percent inhibition, PKCalpha; for inhibition at 1 µM: Conc 1000 nM.
Text: as §1

Experiment [14] has as its target T10, ROS (Homo sapiens, UniProt P08922).
T10 construct: purchased Ambit (KINOMEscan)
The experiment is described as follows: Kinase profiling. The class given is biochemical. Particulars: read-out: Percent inhibition, ROS; for inhibition at 1 µM: Conc 1000 nM.
Text: as §1

The target of experiment [15] is T11, ZAP70 (Homo sapiens, UniProt P43403).
T11 construct: purchased Ambit (KINOMEscan)
T11 sequence (P43403 1-619): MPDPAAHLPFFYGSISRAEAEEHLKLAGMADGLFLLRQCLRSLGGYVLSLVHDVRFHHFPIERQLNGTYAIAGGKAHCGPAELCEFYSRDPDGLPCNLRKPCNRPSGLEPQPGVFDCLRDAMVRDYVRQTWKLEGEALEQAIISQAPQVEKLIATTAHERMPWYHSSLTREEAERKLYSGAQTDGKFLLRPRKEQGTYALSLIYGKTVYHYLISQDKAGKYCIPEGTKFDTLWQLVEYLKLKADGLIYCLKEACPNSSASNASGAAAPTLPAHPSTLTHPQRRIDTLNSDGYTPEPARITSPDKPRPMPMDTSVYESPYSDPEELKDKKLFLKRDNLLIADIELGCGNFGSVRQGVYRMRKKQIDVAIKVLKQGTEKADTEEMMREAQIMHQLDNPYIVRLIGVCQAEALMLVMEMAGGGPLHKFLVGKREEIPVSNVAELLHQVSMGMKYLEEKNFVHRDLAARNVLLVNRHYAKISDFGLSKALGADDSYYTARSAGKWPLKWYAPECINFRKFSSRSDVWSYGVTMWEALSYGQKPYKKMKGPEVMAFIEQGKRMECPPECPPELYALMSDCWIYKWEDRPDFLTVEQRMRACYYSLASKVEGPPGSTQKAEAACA
The experiment is described as follows: Kinase profiling. It counts as biochemical. Particulars: read-out: Percent inhibition, ZAP70; for inhibition at 1 µM: Conc 1000 nM.
Text: as §1

Experiment [16] has as its target T12, cRAF (Homo sapiens, UniProt P04049).
T12 construct: purchased Ambit KINOMEscan
The experiment is described as follows: Kinase profiling. The class given is biochemical. To be noted: Conc 1000 nM; read-out: Percent inhibition, cRAF.
Text: as §1

The subject of experiment [17] is FAK2 (PTK2). Put plainly: Kinase profiling. The class given is biochemical, human.
Text: as §1

The text below walks through data of PMC4639830, “Inhibition of DYRK1A and GSK3B induces human β-cell proliferation” (Nature Communications, 2015).

T4 sequence (O60674 whole entry): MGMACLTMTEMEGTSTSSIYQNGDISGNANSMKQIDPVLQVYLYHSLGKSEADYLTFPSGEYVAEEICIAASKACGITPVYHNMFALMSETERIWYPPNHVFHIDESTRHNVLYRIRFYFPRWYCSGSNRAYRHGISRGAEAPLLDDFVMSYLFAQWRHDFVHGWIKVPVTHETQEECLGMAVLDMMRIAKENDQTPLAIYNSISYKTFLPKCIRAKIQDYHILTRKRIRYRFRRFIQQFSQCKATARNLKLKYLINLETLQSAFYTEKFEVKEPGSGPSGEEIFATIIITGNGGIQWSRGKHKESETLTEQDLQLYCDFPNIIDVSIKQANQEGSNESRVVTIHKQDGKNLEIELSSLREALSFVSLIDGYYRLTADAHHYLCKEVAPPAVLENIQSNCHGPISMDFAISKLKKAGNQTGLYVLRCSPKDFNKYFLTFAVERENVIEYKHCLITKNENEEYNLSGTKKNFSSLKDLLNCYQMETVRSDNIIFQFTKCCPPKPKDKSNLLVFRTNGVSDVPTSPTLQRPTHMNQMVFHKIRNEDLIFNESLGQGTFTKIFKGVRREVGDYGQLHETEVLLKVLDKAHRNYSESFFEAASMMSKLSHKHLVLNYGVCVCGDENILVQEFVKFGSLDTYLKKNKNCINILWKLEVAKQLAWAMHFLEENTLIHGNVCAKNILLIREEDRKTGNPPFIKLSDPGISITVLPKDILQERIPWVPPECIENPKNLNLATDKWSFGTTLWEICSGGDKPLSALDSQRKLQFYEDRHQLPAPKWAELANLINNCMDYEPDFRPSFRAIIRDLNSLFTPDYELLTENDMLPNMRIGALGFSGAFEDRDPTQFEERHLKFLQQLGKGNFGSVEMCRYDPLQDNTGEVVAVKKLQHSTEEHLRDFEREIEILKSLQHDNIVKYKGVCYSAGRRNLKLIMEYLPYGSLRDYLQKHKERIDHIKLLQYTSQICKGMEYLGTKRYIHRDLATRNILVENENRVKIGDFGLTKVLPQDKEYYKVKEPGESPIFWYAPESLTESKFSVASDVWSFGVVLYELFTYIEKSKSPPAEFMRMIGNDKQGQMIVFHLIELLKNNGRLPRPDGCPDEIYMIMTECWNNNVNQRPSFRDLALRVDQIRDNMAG
T10 sequence (P08922 28-2347): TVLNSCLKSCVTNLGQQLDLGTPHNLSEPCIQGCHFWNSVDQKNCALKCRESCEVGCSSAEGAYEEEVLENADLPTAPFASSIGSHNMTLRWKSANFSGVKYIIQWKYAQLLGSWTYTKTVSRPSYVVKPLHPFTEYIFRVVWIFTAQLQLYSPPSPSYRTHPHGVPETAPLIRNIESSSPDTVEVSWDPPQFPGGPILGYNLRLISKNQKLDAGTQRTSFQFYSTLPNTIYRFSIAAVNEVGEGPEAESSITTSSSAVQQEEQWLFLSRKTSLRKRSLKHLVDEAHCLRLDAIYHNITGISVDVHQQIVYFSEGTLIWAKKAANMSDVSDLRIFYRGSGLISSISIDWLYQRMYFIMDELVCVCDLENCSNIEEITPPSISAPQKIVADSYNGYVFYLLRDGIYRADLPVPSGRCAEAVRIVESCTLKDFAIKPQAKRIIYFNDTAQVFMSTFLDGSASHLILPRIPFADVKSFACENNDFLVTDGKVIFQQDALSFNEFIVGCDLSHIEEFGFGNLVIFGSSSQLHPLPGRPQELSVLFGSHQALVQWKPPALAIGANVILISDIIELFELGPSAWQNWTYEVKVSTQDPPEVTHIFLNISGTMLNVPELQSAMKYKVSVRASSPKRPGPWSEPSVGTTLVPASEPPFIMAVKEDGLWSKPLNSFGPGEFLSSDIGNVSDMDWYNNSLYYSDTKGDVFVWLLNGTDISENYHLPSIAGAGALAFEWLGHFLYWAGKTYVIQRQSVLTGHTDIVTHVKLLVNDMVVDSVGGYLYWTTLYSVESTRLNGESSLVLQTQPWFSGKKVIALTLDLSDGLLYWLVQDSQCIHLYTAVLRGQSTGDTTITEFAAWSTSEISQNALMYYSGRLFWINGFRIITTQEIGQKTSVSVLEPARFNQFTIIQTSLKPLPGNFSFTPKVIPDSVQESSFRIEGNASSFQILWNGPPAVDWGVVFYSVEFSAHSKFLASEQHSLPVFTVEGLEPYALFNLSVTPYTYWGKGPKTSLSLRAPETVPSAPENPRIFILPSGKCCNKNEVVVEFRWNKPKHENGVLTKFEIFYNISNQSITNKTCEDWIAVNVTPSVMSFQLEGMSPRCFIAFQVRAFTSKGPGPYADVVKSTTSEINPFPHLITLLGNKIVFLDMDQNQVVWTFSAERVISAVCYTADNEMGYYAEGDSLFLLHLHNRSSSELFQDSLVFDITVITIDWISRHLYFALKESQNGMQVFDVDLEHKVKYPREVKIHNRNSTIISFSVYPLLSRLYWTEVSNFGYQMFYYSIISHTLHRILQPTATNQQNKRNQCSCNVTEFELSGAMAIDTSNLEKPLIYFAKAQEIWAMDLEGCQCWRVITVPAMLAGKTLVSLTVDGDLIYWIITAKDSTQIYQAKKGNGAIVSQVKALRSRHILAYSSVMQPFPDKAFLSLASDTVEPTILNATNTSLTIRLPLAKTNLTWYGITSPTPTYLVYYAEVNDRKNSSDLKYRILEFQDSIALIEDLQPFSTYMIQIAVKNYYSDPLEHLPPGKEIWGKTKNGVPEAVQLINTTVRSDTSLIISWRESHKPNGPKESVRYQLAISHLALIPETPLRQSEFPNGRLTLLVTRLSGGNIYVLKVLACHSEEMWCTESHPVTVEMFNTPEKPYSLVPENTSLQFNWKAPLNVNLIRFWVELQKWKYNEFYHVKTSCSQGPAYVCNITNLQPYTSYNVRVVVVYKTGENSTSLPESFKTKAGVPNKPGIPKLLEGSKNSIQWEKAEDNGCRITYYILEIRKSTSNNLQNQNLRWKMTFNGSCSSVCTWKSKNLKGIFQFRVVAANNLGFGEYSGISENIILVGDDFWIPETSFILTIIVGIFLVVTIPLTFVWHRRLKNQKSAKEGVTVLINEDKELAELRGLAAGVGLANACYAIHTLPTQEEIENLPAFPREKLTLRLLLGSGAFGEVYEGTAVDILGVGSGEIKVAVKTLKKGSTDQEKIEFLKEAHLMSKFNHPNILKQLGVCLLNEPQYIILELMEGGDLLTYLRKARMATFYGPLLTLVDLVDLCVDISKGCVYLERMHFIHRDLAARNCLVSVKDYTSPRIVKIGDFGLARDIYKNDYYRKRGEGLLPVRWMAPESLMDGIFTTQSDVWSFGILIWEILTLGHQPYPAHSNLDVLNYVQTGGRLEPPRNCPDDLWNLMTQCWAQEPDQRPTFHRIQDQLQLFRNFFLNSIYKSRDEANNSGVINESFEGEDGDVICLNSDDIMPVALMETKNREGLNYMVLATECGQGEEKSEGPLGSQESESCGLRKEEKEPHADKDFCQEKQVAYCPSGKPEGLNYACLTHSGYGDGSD
T6 sequence (Q02750 whole entry): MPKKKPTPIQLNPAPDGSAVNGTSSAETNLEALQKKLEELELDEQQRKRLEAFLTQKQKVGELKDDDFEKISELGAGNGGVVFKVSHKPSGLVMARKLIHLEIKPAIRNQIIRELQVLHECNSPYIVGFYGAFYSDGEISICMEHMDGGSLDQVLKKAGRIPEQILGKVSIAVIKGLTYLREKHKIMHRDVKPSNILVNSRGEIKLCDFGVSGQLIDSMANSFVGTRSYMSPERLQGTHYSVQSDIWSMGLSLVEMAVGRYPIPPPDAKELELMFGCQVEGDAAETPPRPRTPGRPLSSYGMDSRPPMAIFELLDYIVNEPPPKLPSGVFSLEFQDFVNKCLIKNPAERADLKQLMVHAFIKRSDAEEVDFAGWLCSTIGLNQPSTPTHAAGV
T5 sequence (P07948 whole entry): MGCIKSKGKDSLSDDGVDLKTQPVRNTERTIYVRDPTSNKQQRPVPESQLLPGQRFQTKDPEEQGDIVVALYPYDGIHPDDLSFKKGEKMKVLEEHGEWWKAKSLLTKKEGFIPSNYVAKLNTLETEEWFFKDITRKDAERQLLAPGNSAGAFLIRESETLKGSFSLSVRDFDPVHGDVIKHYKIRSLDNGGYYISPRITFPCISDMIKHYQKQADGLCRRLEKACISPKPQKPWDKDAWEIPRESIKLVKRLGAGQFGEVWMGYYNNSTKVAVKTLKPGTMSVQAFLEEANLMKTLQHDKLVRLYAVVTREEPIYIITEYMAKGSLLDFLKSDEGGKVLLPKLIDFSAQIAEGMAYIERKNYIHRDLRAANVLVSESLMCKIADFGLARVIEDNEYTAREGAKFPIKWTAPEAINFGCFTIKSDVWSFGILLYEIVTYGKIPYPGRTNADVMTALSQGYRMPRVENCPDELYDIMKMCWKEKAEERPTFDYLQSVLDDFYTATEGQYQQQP

Consider `CC(C)Oc1ccc(F)c(-c2cnc(N)c(C(=O)Nc3cnccc3N3CCC[C@@H](C(=O)O)C3)n2)c1` [GNF4877], for which a half-maximal effect in [1] (EC50) was put at 660 nM. Further, in [2], the “DNA and ATP content and islet equivalent units (IEQ) compared with vehicle” value was “increases in DNA and ATP content and an increase in islet equivalent units”. Besides, in experiment [2], the “insulin secretory capacity (GSIS)” value is on record as “maintained insulin secretory capacity”. Also, the “induction of Wnt-driven luciferase reporter gene” value in experiment [3] was “induce a Wnt-driven luciferase reporter gene”. Further, the NFATc1-GFP nuclear localization result in experiment [4] was “caused marked nuclear localization of NFATc1-GFP”. Besides, the inhibition at 1 µM in experiment [5] worked out at 25%; in [6], 49%; in experiment [7], 28%; in [8], 95%; in experiment [9], 54%; in experiment [10], 17%. Further, the inhibition at 1 µM in [11] turned out to be 45%; in [12], 31%; in experiment [13], 97%; in experiment [14], 97%; in experiment [15], 94%; in experiment [16], 18%. Further, the inhibition at 0.2 µM in [8] (Conc 200 nM) turned out to be 2%; in experiment [13] (Conc 200 nM), 0%; in experiment [14] (Conc 200 nM), 71%; in experiment [15] (Conc 200 nM) it was 0%. The “Percent inhibition, FAK2 (PTK2)” value is given as 9% in experiment [17] (Conc 200 nM) and 70% in [17] (Conc 1000 nM).
For the molecule `Nc1ncc(-c2ccccc2)nc1C(=O)Nc1cnccc1N1CCC(C(=O)O)CC1` [GNF7156], the midpoint of the response in [1], the EC50, lay at 2200 nM. Also, the “insulin content of treated human islets” value in experiment [2] (6.7 μM GNF7156) was “slightly reduced insulin content”. In experiment [2], the “DNA and ATP content and islet equivalent units (IEQ) compared with vehicle” value was “increases in DNA and ATP content and an increase in islet equivalent units”. Also, in experiment [2], the “insulin secretory capacity (GSIS)” value is “maintained insulin secretory capacity”. Besides, in experiment [3], the “induction of Wnt-driven luciferase reporter gene” value is given as “induce a Wnt-driven luciferase reporter gene”. Also, the NFATc1-GFP nuclear localization result in experiment [4] is “caused marked nuclear localization of NFATc1-GFP”. Besides, the inhibition at 1 µM in experiment [5] amounted to 7%; in [6] it was 52%; in experiment [7], 12%; in experiment [8], 92%; in [9], 56%; in experiment [10], 50%. For the same molecule, the inhibition at 1 µM amounted to 43% in experiment [11]; 2% in [12]; 96% in experiment [13]; 96% in experiment [14]; 70% in experiment [15]; 17% in [16]. Further, the “Percent inhibition, FAK2 (PTK2)” value in experiment [17] (Conc 1000 nM) is given as 92%.

Broadly, the EC50 is the concentration at which the effect is half-maximal. By inhibition is commonly meant the share of the control response that was lost under treatment.
